SMILES strings stand for the structures.

Experiment [1] has as its system pAKT S473 in NCI-H441 cells. The experiment is described as follows: Western blot quantitation of pAKT S473 (mTORC2 biomarker). The class given is cell-based. The conditions noted are these: Homo sapiens; NCI-H441, presence of bleomycin, 2 hrs, n=3; read-out: IC50 of pAKT S473 inhibition. (In general: A western blot detects proteins with antibodies after separation by electrophoresis.)

Experiment [2] deals with pDNA-PK S2056 in NCI-H441 cells. The experiment is described as follows: Western blot quantitation of pDNA-PK S2056. The class given is cell-based, human. As to the method:
(§1) The cell lysates were subjected to SDS-PAGE and immunoblotting with indicated antibodies. […] The pDNA-PK bands were quantified by Odyssey imaging software (LI-COR, Lincoln, NE) and normalized to total DNA-PK. IC50 values were determined by Excelfit (London, UK).

Another experiment deals with NHEJ in Cal-51 cells. The experiment is described as follows: 384-well image-based cellular NHEJ assay. The class given is cell-based. The conditions noted are these: Homo sapiens; Cal-51, n=3. An excerpt: (§2) ATM and ATR assay and IC50 determination Cellular NHEJ assay
(§3) HA-ATM and FLAG-ATR (HA-labeled ATM, and The experimental design is illustrated in FLAG-labeled ATR) were each transiently expressed in Supplementary Figure 4. Cal-51 breast cancer cells HEK293 cells (293FT cells, Invitrogen Cat: R700-07) were separately transfected with pEGFP plasmid (6085-using Lipofectamine as transfection reagent. Cells were 1, Clontech, Mountain View, CA) digested with either harvested 6 days post transfection and spun down to EcoRI (to measure NHEJ) or StuI (to measure transfection separate cells from media. Cells were then lysed using a efficiency) using a Amaxa cell line nuclearfector kit V lysis buffer (50 mM Tris buffer, (Tris(hydroxylmethyl)- (CCA-1003, Lonza). Immediately after the transfection, aminomethane, pH 7.5), 100 mM NaCl, 50 mM βGOP, the cells were treated with DMSO or compounds at 10% Glycerol, 0.5% Tween 20, 1 mM EDTA, 25 mM indicated concentrations for 24 hours and GFP-positive sodium fluoride (NaF), 20 nM microcystine, 2 mM cells were counted under a fluorescent microscope. NHEJ phenylmethylsulfonylfluoride (PMSF) and protease activity was calculated by the number of GFP-positive inhibitor cocktail) followed by sonication 3 times and a cells in cells transfected with pEGFP-EcoRI divided by final spin at 20,000 rpm for 30 minutes to generate a clear that in cells transfected with pEGFP-StuI, multiplied by lysate. To perform the immunoprecipitation, enzymes were 100. […]
(§4) or FLAG tags. Beads plus enzymes were then washed 3 developed. Different cell lines were transfected using times with lysis buffer and spun down at 1000 rpm for the procedure described above and subsequently seeded 1 minute. Beads plus enzymes were resuspended in lysis into 384-well plates at optimized density for individual buffer and kept at 4°C until assay. Assays for ATM and cell lines. Cells were then treated with compounds at ATR were conducted in a 33P radioactive assay format. increasing concentrations. GFP+ cells were imaged Assay buffer contained the following reagents: 1 mg/mL and quantitated using the IncuCyte (Essen Bioscience, GST-p53 (glutathione S-transferase–p53 fusion protein) Ann Arbor, MI). NHEJ activity was then normalized substrate (expressed in-house), 20 μg/mL calf thymus to the DMSO control and fitted to the Sigmoidal Dose-DNA activator (Sigma), 100 μg/mL BSA, 200 μM EGTA Response Model (IDBS XLFit Model 205; London, UK)

The test system of experiment [3] is NHEJ in HCT116 colorectal cancer cells. The experiment is described as follows: 384-well image-based cellular NHEJ assay. The class given is cell-based. The conditions noted are these: Homo sapiens, HCT-116; HCT116, n=3.
Description: as §2, §3, §4

Experiment [4] deals with NHEJ in MDA-MB-231 breast cancer cells. The experiment is described as follows: 384-well image-based cellular NHEJ assay. The format is cell-based. Conditions: Homo sapiens; MDA-MB-231, n=3.
Description: as §2, §3, §4

In experiment [5] the test system is NHEJ in PC3 prostate cancer cells. The experiment is described as follows: 384-well image-based cellular NHEJ assay. The format is cell-based. Conditions: Homo sapiens; PC3, n=3.
Description: as §2, §3, §4

Experiment [6] relates to ATM-proficient cell lines (MDA-MB-231, MCF7, CAL51, HCC1937). The experiment is described as follows: Colony-formation assay. The conditions noted are these: versus ATM-deficient HCC1187. The class given is cell-based, human. The protocol: MCF7, Cal51, MDA-MB-231, H1937, MDA-MB-175VII and HCC1187 human breast cancer cell lines were plated at 2000 cells per well in 6-well plates and HCC1500 breast cancer cell line was plated at 10,000 cells per well in 6-well plates and cultured overnight. Cells were then treated with compounds at indicated concentrations. Media and compounds were changed every three days. Plates were incubated for a total of about two weeks then fixed and stained using the DIFF QUIK staining kit (Microptic, Barcelona, Spain). Colonies were imaged and counted.

For experiment [7], the system named is NCI-H1975 and SW1573 cells. The experiment is described as follows: Clonogenic assay alone or with etoposide. The format is cell-based, human. As to the method:
Media were changed every three days. Plates were incubated for a total of about two weeks then fixed and stained using the DIFF QUIK staining kit. Colonies were imaged and counted.

The subject of experiment [8] is panel of 123 cancer cell lines. The experiment in a line: Proliferation assay, whole panel. The format is cell-based. Conditions: Homo sapiens; range over 123 cell lines; read-out: GI50 values across the cancer cell line panel. As to the method: (§5) Proliferation assays were performed as previously described. […] The concentration of compound required for a 2-fold induction of Caspase was determined (CalX).

Experiment [9] has as its system hematological and solid tumor cell lines. The experiment is described as follows: Caspase 3/7-Glo apoptosis assay. The class given is cell-based, human. The conditions noted are these: 24 h, subset of hematological and solid tumor cell lines. As to the method:
as §5

In experiment [10] the test system is pDNA-PK S2056 in HT29 and MDA-MB-436 cells. The experiment in a line: Immunoblotting of intact cells with bleomycin. The format is cell-based, human. Conditions: 5 μM with 1.5 mU/mL bleomycin, 2 or 12 hours. The protocol: as §1

The term IC50 denotes the midpoint of a concentration-inhibition curve. The term GI50 denotes the concentration giving 50% growth inhibition. For the compound `CCN1C(=O)CNc2ncc(-c3ccc(-c4nc[nH]n4)nc3C)nc21` [CC-115, 1-ethyl-7-(2-methyl-6-(1H-1,2,4-triazol-3-yl)pyridin-3yl)-3,4-dihydropyrazino[2,3-b]pyrazin-2(1H)-one], the IC50 in [1] turned out to be 0.136 ± 0.062 µM; in experiment [2] (Homo sapiens, NCI-H441, presence of bleomycin, 2 hrs, n=3, read-out: IC50 of pDNA-PK S2056 inhibition), 2.6 ± 0.45 µM; in the experiment on NHEJ in Cal-51 cells, 3.15 ± 1.33 µM; in experiment [3] it was 6.35 ± 2.98 µM; in experiment [4], 2.16 ± 0.91 µM; in [5], 2.72 ± 1.69 µM. Besides, the “cellular activity against DNA-PK weaker than against mTOR kinase” value in [2] (NCI-H441) is roughly 16 fold. The “ATM-proficient cell lines less sensitive to inhibition of colony formation” value in experiment [6] stood at 100 fold. Besides, the “combination with 6.8 μM etoposide on colony formation greater than additive” value in experiment [7] (0.1 μM compound, 4 hours) was “not”. The “combination with 6.8 μM etoposide on colony formation” value in [7] (10 μM compound, 4 hours) is listed as “synergistic effect”. Also, the “effect on cell survival, single agent” value in experiment [7] (4 hours treatment alone) was “minimal effect on cell survival”. Moreover, in experiment [8], the GI50 fell in the range of 0.015 to 1.77 µM. Also, in experiment [9], the “apoptosis induction (Caspase 3/7)” value is “induced strong apoptosis”. Moreover, the “DNA-PK activity (pDNA-PK S2056)” value in experiment [10] was “significantly inhibited”.

These data come from paper PMC5650372 (Oncotarget, 2017).
